Tests used:
[1] = molecular target: T1, [Pyruvate dehydrogenase (acetyl-transferring)] kinase isozyme 1, mitochondrial (Homo sapiens, UniProt Q15118); assay: Inhibition of SUMO-tagged PDHK1 (unknown origin) in presence of [gamma-32P]ATP after 30 mins by SDS-PAGE based phosphor imaging method
[2] = Inhibition of PDHK (unknown origin); parameters: species or system Homo sapiens
[3] = molecular target: [Pyruvate dehydrogenase (acetyl-transferring)] kinase isozyme 2, mitochondrial (Homo sapiens, UniProt Q15119); assay: Inhibition of fluorescein-labelled VER160364 binding to PDHK2 (unknown origin) after 90 mins by fluorescence polarization assay
[4] = molecular target: T2, Heat shock protein HSP 90-alpha (Homo sapiens, UniProt P07900); assay: Displacement of fluorescein-labelled VER160364 from HSP90A (unknown origin) after 90 mins by fluorescence polarization assay
[5] = molecular target: T1, [Pyruvate dehydrogenase (acetyl-transferring)] kinase isozyme 1, mitochondrial; assay: Inhibition of fluorescein-labelled VER160364 binding to PDHK1 (unknown origin) after 90 mins by fluorescence polarization assay
[6] = molecular target: T1, [Pyruvate dehydrogenase (acetyl-transferring)] kinase isozyme 1, mitochondrial; assay: Binding affinity to PDHK1 (unknown origin) by surface plasmon resonance method
[7] = molecular target: T1, [Pyruvate dehydrogenase (acetyl-transferring)] kinase isozyme 1, mitochondrial; assay: Inhibition of PDHK1 (unknown origin) assessed as decrease in phosphorylation of E1alpha subunit at serine 293 residue after 1 hr by DELFIA
[8] = molecular target: T1, [Pyruvate dehydrogenase (acetyl-transferring)] kinase isozyme 1, mitochondrial; assay: Inhibition of PDHK1 in human PC3 cells assessed as decrease in phosphorylation of E1alpha subunit at serine 293 residue after 1 hr by ELISA; format: cell-based
PC-3 = assay: Antiproliferative activity against human PC3 cells after 96 hrs by sulphorhodamine B assay; format: functional; details: PC-3, 96 h
[9] = molecular target: T2, Heat shock protein HSP 90-alpha; assay: Displacement of fluorescein-labelled VER160364 from HSP90A (unknown origin) at 200 uM after 90 mins by fluorescence polarization assay relative to control
[10] = molecular target: T2, Heat shock protein HSP 90-alpha; assay: Dissociation rate from HSP90A (unknown origin) by surface plasmon resonance method
[11] = molecular target: [Pyruvate dehydrogenase (acetyl-transferring)] kinase isozyme 3, mitochondrial (Homo sapiens, UniProt Q15120); assay: Inhibition of fluorescein-labelled VER160364 binding to PDHK3 (unknown origin) after 90 mins by fluorescence polarization assay
Chain of [Pyruvate dehydrogenase (acetyl-transferring)] kinase isozyme 3, mitochondrial (Q15120 whole entry): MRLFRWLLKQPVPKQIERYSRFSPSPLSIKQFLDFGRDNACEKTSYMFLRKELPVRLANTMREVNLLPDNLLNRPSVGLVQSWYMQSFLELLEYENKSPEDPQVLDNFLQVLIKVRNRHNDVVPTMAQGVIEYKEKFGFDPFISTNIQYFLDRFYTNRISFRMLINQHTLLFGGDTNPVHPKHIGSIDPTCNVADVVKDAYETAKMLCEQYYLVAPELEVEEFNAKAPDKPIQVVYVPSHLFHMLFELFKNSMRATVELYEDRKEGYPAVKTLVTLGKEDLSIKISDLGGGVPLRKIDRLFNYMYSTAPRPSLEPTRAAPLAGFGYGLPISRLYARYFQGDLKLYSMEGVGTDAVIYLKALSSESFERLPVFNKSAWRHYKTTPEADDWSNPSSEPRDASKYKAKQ

[12] = molecular target: T3, [Pyruvate dehydrogenase (acetyl-transferring)] kinase isozyme 4, mitochondrial (Homo sapiens, UniProt Q16654); assay: Inhibition of fluorescein-labelled VER160364 binding to PDHK4 (unknown origin) after 90 mins by fluorescence polarization assay
T3 sequence (Q16654 whole entry): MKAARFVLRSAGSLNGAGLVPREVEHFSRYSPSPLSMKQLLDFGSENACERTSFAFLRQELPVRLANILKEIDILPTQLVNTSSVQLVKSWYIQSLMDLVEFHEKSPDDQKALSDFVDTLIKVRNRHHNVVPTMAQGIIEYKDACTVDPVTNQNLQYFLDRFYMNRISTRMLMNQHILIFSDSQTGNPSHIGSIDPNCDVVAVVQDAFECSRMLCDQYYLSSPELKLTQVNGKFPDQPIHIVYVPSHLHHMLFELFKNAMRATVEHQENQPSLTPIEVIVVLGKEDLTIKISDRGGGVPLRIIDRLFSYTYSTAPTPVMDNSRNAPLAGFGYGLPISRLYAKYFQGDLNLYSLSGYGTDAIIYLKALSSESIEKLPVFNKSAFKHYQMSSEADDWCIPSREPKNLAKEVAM

[13] = molecular target: T3, [Pyruvate dehydrogenase (acetyl-transferring)] kinase isozyme 4, mitochondrial
Description: Inhibition of PDHK4 (unknown origin) assessed as decrease in phosphorylation of E1alpha subunit at serine 293 residue after 1 hr by DELFIA

[14] = molecular target: T1, [Pyruvate dehydrogenase (acetyl-transferring)] kinase isozyme 1, mitochondrial; assay: Binding affinity to PDHK1 (unknown origin) by isothermal titration calorimetry

T1 sequence (Q15118 whole entry): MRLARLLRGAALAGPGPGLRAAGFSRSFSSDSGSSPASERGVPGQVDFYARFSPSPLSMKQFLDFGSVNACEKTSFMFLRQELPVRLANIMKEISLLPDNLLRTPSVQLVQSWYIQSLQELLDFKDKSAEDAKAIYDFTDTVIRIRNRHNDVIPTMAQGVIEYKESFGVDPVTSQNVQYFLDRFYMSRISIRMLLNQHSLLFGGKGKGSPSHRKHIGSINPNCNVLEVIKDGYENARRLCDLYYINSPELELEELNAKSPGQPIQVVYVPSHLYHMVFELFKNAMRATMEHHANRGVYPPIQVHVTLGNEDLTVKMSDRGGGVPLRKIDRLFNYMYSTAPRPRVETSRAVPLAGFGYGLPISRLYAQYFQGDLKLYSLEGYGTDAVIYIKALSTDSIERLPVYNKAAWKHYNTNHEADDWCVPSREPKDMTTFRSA

SMILES | Ki [4] [µM] | Ki [5] [µM] | Kd [6] [µM] | IC50 [7] [µM] | IC50 [8] [µM] | further results
C[C@@H]1C[C@H]2O[C@@H]2/C=C\C=C\C(=O)Cc2c(Cl)c(O)cc(O)c2C(=O)O1 [RADICICOL] |  |  |  |  |  | IC50 [1]: 230 µM; IC50 [2]: 1200 µM
CN(C)C(=O)c1ccc(N(C)C(=O)c2ccc(O)cc2O)cc1 | 1.23 |  |  |  |  | IC50 [3]: 0.35 µM; Ki [3]: 0.15 µM; IC50 [4]: 2.97 µM
C[C@@H]1CCc2cc(F)ccc2N1C(=O)c1ccc(O)cc1O |  | 1.17 |  |  |  | inhibition [9]: 62%; koff [6]: 0.27 s⁻¹; koff [10]: 0.6 s⁻¹
O=S(=O)(c1ccc(O)cc1O)N1Cc2cc(O)cc(O)c2C1 |  |  |  | 2.1 |  | IC50 [4]: 47 µM; IC50 [13]: 0.84 µM
Cc1cc2ccccc2nc1-c1ccc2c(c1)CC[C@H](C)N2C(=O)c1ccc(O)cc1O | 10.6 | 0.124 | 0.115 | 0.139 | 2.68 | Kd [14]: 0.153 µM; GI50 (PC-3): 14 µM
CC1CCc2cc(F)ccc2N1C(=O)c1ccc(O)cc1O (racemic) | 9.15 | 0.2 |  |  |  | koff [6]: 0.08 s⁻¹; koff [10]: 0.23 s⁻¹
CN(C)C(=O)c1ccc(S(=O)(=O)c2ccc(NC(=O)[C@@](C)(O)C(F)(F)F)c(Cl)c2)cc1 |  |  |  |  | 0.041 | 
Cc1cnc(Cl)nc1-c1ccc2c(c1)CC[C@H](C)N2C(=O)c1ccc(O)cc1O | 1.98 | 0.037 | 0.019 | 0.063 | 2.74 | Kd [14]: 0.032 µM; GI50 (PC-3): 40 µM
CCNC(=O)CN(C(=O)c1ccc(O)cc1O)c1ccc(OC)cc1 |  |  |  |  |  | IC50 [3]: 4.46 µM; Ki [3]: 2.17 µM; inhibition [9]: 74%
CCNC(=O)c1noc(-c2cc(Cl)c(O)cc2O)c1-c1ccc(CN2CCOCC2)cc1C | 0.032 | 0.136 |  |  |  | koff [6]: 0.014 s⁻¹; koff [10]: 0.001 s⁻¹
O=C(c1ccc(O)cc1O)N(Cc1ccccc1)c1ccccc1 |  | 0.98 |  |  |  | koff [6]: 0.26 s⁻¹; koff [10]: 0.14 s⁻¹
CCN(CC)CCN(C(=O)c1ccc(O)cc1O)c1ccc(OC)cc1 |  |  |  |  |  | IC50 [3]: 2.78 µM; Ki [3]: 1.33 µM; inhibition [9]: 79%
C[C@@H]1CN(C(=O)[C@@](C)(O)C(F)(F)F)[C@@H](C)CN1C(=O)c1ccc(C#N)cc1 |  |  |  |  | 0.066 | 
CN(C(=O)c1ccc(O)cc1O)c1ccc(C(=O)N2CC(C(=O)O)Oc3ccccc32)cc1 (configuration not stated) | 0.184 | 0.26 |  |  |  | 
C[C@H]1CCc2cc(C(=O)N(C)Cc3ccc4nccnc4c3)ccc2N1C(=O)c1ccc(O)cc1O | 2.51 | 0.016 | 0.006 | 0.036 | 3.01 | GI50 (PC-3): 30 µM
Cc1cnc(Cl)nc1-c1ccc(N(Cc2ccccc2)C(=O)c2ccc(O)cc2O)cc1 | 6.55 | 0.067 | 0.016 | 0.072 | 1.72 | Kd [14]: 0.06 µM; GI50 (PC-3): > 40 µM
COc1ccc(CN(C)C(=O)c2ccc(N(Cc3ccccc3)C(=O)c3ccc(O)cc3O)cc2)cc1 | > 50 | 0.241 | 0.01 | 0.201 | 10.6 | 
COc1cc2c(cc1OC)C(c1cccnc1)N(C(=O)c1ccc(O)cc1O)CC2 (configuration not stated) |  |  |  |  |  | koff [6]: 0.019 s⁻¹; koff [10]: 0.29 s⁻¹

The next lines start with results.

Ki [4] [µM] | Ki [5] [µM] | Kd [6] [µM] | IC50 [7] [µM] | IC50 [8] [µM] | SMILES | further results
3.21 | 0.037 | 0.078 | 0.101 | 2.15 | Cc1cnc(Cl)nc1-c1ccc(N(Cc2ccc(CN3CCCC3)cc2)C(=O)c2ccc(O)cc2O)cc1 | GI50 (PC-3): 38 µM
> 50 | 0.64 | 0.009 | 0.135 | 1.82 | C[C@H]1CCc2cc(-c3nc(Cl)nc4[nH]ccc34)ccc2N1C(=O)c1ccc(O)cc1O | GI50 (PC-3): 15 µM
1.38 | 1.93 |  |  |  | COc1ccc(N(C)C(=O)c2ccc(O)cc2O)cc1 | IC50 [3]: 2.23 µM; Ki [3]: 1.07 µM; IC50 [4]: 3.02 µM; Ki [11]: 0.55 µM; Ki [12]: 1.27 µM
1.78 | 0.467 | 0.01 | 0.198 | 2.78 | C[C@H]1CCc2cc(-c3nc(Cl)nc4ccsc34)ccc2N1C(=O)c1ccc(O)cc1O | 
> 50 |  | 0.01 | 0.015 | 5.77 | Cc1cnc(Cl)nc1-c1ccc2c(c1)CC[C@H](c1cccnc1)N2C(=O)c1ccc(O)cc1O | 
> 100 |  |  |  |  | Cc1cnc(Cl)nc1-c1ccc(N(Cc2ccc(CNC(=O)C(F)F)cc2)C(=O)c2ccc(O)cc2O)cc1 | GI50 (PC-3): 26.2 µM
3.48 | 0.09 |  |  |  | C[C@H]1CCc2cc(F)ccc2N1C(=O)c1ccc(O)cc1O | koff [6]: 0.08 s⁻¹; koff [10]: 0.18 s⁻¹
1.02 | 0.026 | 0.001 | 0.0627 | 5.65 | CN(Cc1ccc2nccnc2c1)C(=O)c1ccc(N(Cc2ccccc2)C(=O)c2ccc(O)cc2O)cc1 | 

From ChEMBL document CHEMBL4007418, “Application of Off-Rate Screening in the Identification of Novel Pan-Isoform Inhibitors of Pyruvate Dehydrogenase Kinase” (J Med Chem, 2017)
